Key:
HepG2 cells = test: In vitro toxicity, alamarBlue viability; format: cell-based, human; conditions: Homo sapiens, HepG2, 24 h
Method: The human hepatoblastoma HepG2 cell line (HB-8065; ATCC, Manassas, VA) was cultured in DMEM-GlutaMAX (5.5 mM glucose; Thermo Fisher) supplemented with 10% fetal bovine serum (Sigma-Aldrich), streptomycin (100 μg/ml; Gibco/Thermo Fisher), and penicillin (100 U/ml; Gibco/Thermo Fisher) at 37°C in 5% CO2. For viability assays, cells were seeded in white 96-well Nunclon plates (Sigma-Aldrich) at a density of 20,000 cells/well and left overnight to adhere. ZN148 and TPA (Sigma-Aldrich, Darmstadt, Germany) dissolved in dimethyl sulfoxide (DMSO; (Sigma-Aldrich) were added to the white 96-well plates containing 20,000 HepG2 cells/well at concentrations ranging from 1 to 1 × 10^−3 mM (a DMSO concentration kept below 1%), followed by incubation for 24 h at 37°C in 5% CO2. After 24 h, alamarBlue cell viability reagent (Thermo Fisher, Carlsbad, CA) was added (10% final concentration), followed by incubation for 4 h at 37°C. The proportion of viable cells in each well was measured in a fluorescence plate reader (Clariostar; BMGlabtech, Germany) at excitation 550 nm/emission 603 nm ([56]). Data from eight replicates were fitted by nonlinear regression to determine IC50 values using Prism (GraphPad Software, Inc.).

[1] = test system: 173 MBL-producing E. coli and K. pneumoniae strains; test: Doripenem and imipenem MIC, MBL-producing E. coli and K. pneumoniae subset; format: cell-based; conditions: 50 μM ZN148; 173 strains
Method: (§1) MICs of carbapenems alone and in combination with inhibitors were determined by broth microdilution according to the Clinical and Laboratory Standards Institute (CLSI) guidelines ([48]) using either premade plates (TREK Diagnostic Systems/Thermo Fisher Scientific, East Grinstead, United Kingdom) with meropenem or in-house-prepared plates with meropenem, imipenem, and doripenem. ZN148 and other inhibitors were tested at a fixed concentration of 50 μM. Cation-adjusted Mueller-Hinton medium (TREK Diagnostic Systems/Thermo Fisher Scientific; Becton Dickinson, Franklin Lakes, NJ) were used as growth medium. The plates were incubated for 20 h at 37°C. ZN148, ZN222, ZN223, ZN228, and TPA were initially tested in combination with meropenem using two indicator strains: NDM-1-producing K. pneumoniae ([49], [50]) and VIM-2-producing P. aeruginosa ([51]). […]

[2] = test system: strains coproducing MBLs and class D carbapenemases; test: Carbapenem potentiation, strains coproducing MBLs and class D carbapenemases; format: cell-based; conditions: with a few exceptions; 50 μM ZN148
Method: as §1

[3] = test system: strains harboring only the class A carbapenemase KPC; test: Carbapenem potentiation, strains with only KPC; format: cell-based; conditions: 50 μM ZN148
[4] = test system: NDM-1-producing K. pneumoniae K66-45; test: Serial passage on increasing meropenem; format: cell-based; conditions: for fold increase in meropenem MIC after serial passaging: compared to control culture / original MIC
Method: K. pneumoniae K66-45 was passaged in a 96-well microtiter plate with a consistent concentration of ZN148 and increasing concentrations of meropenem. To start the passaging, cation-adjusted Mueller-Hinton broth II medium (Sigma-Aldrich) containing 0.0625 mg/liter (0.5× MIC) and 50 or 100 μM ZN148 was inoculated with 1% of overnight culture, which was grown without selection. Six biological replicates were passaged in parallel, and from each of the six overnight cultures four wells were inoculated, resulting in 24 subcultures for each ZN148 concentration. After 24 h of incubation at 37°C and shaking at 180 rpm, the wells were visually checked for growth.

[5] = test system: NDM-1-producing K. pneumoniae 50752501; test: Murine neutropenic peritonitis model; format: in vivo, mice
Method: The in vivo efficacy of meropenem (Mylan; Mylan Hospitals, Asker, Norway) in combination with ZN148 were evaluated in a murine neutropenic peritonitis model. Female NRMI mice (Taconic Biosciences, Lille Skensved, Denmark) were rendered neutropenic by intraperitoneal (i.p.) injection with cyclophosphamide (Baxter, Søborg, Denmark) at 4 days (200 mg/kg) and 1 day (100 mg/kg) prior to inoculation. Mice were inoculated i.p. with ∼5 × 10^6 CFU of NDM-1-producing K. pneumoniae 50752501. At 1 h postinoculation, the mice were injected subcutaneously (s.c.) in the neck region with ZN148 corresponding to 10, 33, or 100 mg/kg or vehicle. After 30 min, the mice were injected s.c. with 33 mg/kg meropenem or vehicle. Four mice were included for each treatment regime. At 5 h postinoculation, the mice were anesthetized. Blood was collected from axillary cutdown, and the mice were sacrificed. Subsequently, 2 ml of sterile saline was injected i.p., and the intraperitoneal fluid was sampled. Blood and intraperitoneal fluid were serially diluted in 0.9% NaCl and plated on blood agar plates with 5% horse blood (Statens Serum Institut, Copenhagen, Denmark) for CFU determination. Groups were analyzed with analysis of variance (ANOVA) Dunnett’s multiple-comparison test in Prism 7.04 (GraphPad Software, Inc.). P values of <0.05 were considered statistically significant. All animal experiments were approved by the National Committee of Animal Ethics, Denmark (permission 2014-15-0201-00171), and adhered to the standards of EU Directive 2010/63/EU.

[6] = test system: K. pneumoniae with VIM (n=17); test: Meropenem MIC distribution, K. pneumoniae with VIM; format: cell-based; conditions: MEM alone or +50 µM ZN148
Method: MICs of carbapenems alone and in combination with inhibitors were determined by broth microdilution according to the Clinical and Laboratory Standards Institute (CLSI) guidelines ([48]) using either premade plates (TREK Diagnostic Systems/Thermo Fisher Scientific, East Grinstead, United Kingdom) with meropenem or in-house-prepared plates with meropenem, imipenem, and doripenem. ZN148 and other inhibitors were tested at a fixed concentration of 50 μM. Cation-adjusted Mueller-Hinton medium (TREK Diagnostic Systems/Thermo Fisher Scientific; Becton Dickinson, Franklin Lakes, NJ) were used as growth medium. The plates were incubated for 20 h at 37°C. ZN148, ZN222, ZN223, ZN228, and TPA were initially tested in combination with meropenem using two indicator strains: NDM-1-producing K. pneumoniae ([49], [50]) and VIM-2-producing P. aeruginosa ([51]). The activity of ZN148 were subsequently tested against two extended strain collections: (i) in combination with meropenem against MBL-producing Enterobacterales (n = 62), MBL-producing P. aeruginosa (n = 9) and MBL- and class D carbapenemase-coproducing Enterobacterales (n = 5) from the strain collection at the Norwegian National Advisory Unit on Detection of Antimicrobial Resistance and (ii) in combination with meropenem, imipenem, and doripenem against globally collected MBL-producing E. coli (n = 87), K. pneumoniae (n = 85), P. aeruginosa (n = 52), and A. baumannii (n = 6), MBL- and class A/D carbapenemase-coproducing E. coli (n = 11), K. pneumoniae (n = 15) and A. baumannii (n = 7) at IHMA Europe, Sàrl, Switzerland. E. coli ATCC 25922 and P. aeruginosa ATCC 27853 were used as quality control strains. The MBL inhibitors were also tested for intrinsic antibacterial activity against the strains.

CN(C[C@H](O)[C@@H](O)[C@H](O)[C@H](O)CO)C(=O)c1ccc(CN(Cc2ccccn2)Cc2ccccn2)nc1 [ZN148]
IC50 (HepG2 cells): > 100 µM | strains with doripenem MIC reduced to susceptible levels [1]: > 99% | strains with imipenem MIC reduced to susceptible levels [1]: > 99% | potentiation of meropenem, doripenem, and imipenem [2]: no potentiation | potentiation of meropenem, doripenem, or imipenem [3]: no potentiation | maximum meropenem MIC reached by evolved cultures ([4]; 50 µM ZN148, 8 passages): 8 µg/mL | maximum meropenem MIC reached by evolved cultures ([4]; 100 µM ZN148, 6 passages): 2 µg/mL | fold increase in meropenem MIC after serial passaging ([4]; in the presence of 50 μM ZN148): 64 fold | fold increase in meropenem MIC after serial passaging ([4]; in the presence of 100 μM ZN148): 16 fold | CFU with ZN148 alone compared to vehicle ([5]; ZN148 alone, s.c.): did not result in a reduction in CFU | CFU/ml with meropenem + higher ZN148 doses compared to meropenem alone ([5]; meropenem 33 mg/kg + 33 and 100 mg/kg ZN148 s.c.): same effect | CFU/ml in peritoneal fluid compared to meropenem alone ([5]; s.c. meropenem 33 mg/kg + ZN148 10 mg/kg, 5 h postinoculation, P < 0.0001): significantly lower CFU/ml | CFU/ml in blood compared to meropenem alone ([5]; s.c. meropenem 33 mg/kg + ZN148 10 mg/kg, 5 h postinoculation, P < 0.01): significantly lower CFU/ml

C[C@@H](O)[C@H]1C(=O)N2C(C(=O)O)=C(S[C@@H]3CN[C@H](C(=O)N(C)C)C3)[C@H](C)[C@H]12 [meropenem]
No. of strains with indicated MIC ([6]; MIC 2 mg/L): 2 | No. of strains with indicated MIC ([6]; MIC 4 mg/L): 2 | No. of strains with indicated MIC ([6]; MIC 8 mg/L): 1 | No. of strains with indicated MIC ([6]; MIC 16 mg/L): 4 | No. of strains with indicated MIC ([6]; MIC 32 mg/L): 3 | No. of strains with indicated MIC ([6]; MIC ≥64 mg/L): 5

— article PMC7269481, “ZN148 Is a Modular Synthetic Metallo-β-Lactamase Inhibitor That Reverses Carbapenem Resistance in Gram-Negative Pathogens In Vivo” (Antimicrobial Agents and Chemotherapy, 2020)
